Earlier results on 1 compound are cited in US20160051475A1, “Sustained Release Composition Comprising an Amine as Active Agent and a Salt of a Cyclic Organic Acid” (Upsher-Smith Laboratories, Inc., priority 2010, published 2016).

`CC(=O)Nc1ccc(O)cc1` [acetaminophen]: the pKa is 9.7.
